Reference: publication PMC8536124 (International Journal of Molecular Sciences, 2021)
Entries after “also recorded” stand apart in the source; their conditions may differ. Read-outs that look alike come from different tables or passages of the source.

Assays:
[1] = system: NCI-60 cancer cell line panel; experiment: NCI-60 screening (SRB), full panel; type: cell-based, human; conditions: 1 dose 10 µM; for activity at 10 µM: Homo sapiens, 60 cell lines, 48 h
Description: (§1) The experimental data allow the assessment of the cytostatic effect, indicated by growth inhibition values ranging between 0 and 100, as well as of the cytotoxic effect, indicated by negative values.
(§2) The mean GI50 (molar concentration of the compound that inhibits 50% net cell growth), TGI (molar concentration of the compound leading to the total inhibition), and LC50 (molar concentration of the compound leading to 50% net cell death (presented in negative logarithm)) values across each cell line are shown in Table 2.
(§3) The selectivity index (SI), calculated as the ratio between the full panel MG_MID60 (μM) of compounds 4, 6, and 9 by their respective subpanels MG_MID of the cell line (μM), was introduced as a quantification tool for the selectivity of each compound in terms of anticancer effect (Table 3).
(§4) Primary anticancer assays were performed according to the NCI protocol, as described elsewhere (see e.g., http://dtp.nci.nih.gov accessed on 1 November 2018). The compounds were added at a single concentration, and the cell cultures were incubated for 48 h. The end point determinations were made with a protein-binding dye, sulforhodamine B (SRB). […] The percentage of growth was evaluated spectrophotometrically versus controls not treated with test agents after 48 h exposure and using SRB protein assay to estimate cell viability or growth. Three antitumor activity dose-response parameters were calculated for each cell line. Furthermore, mean graph midpoints (MG_MID) were calculated for each of the parameters, giving an average activity parameter over all cell lines for the tested compound. For the MG_MID calculation, insensitive cell lines were included with the highest concentration tested.

LOX IMVI = experiment: NCI-60 screening (SRB); type: cell-based, human; conditions: LOXIMVI (Melanoma); 1 dose 10 µM
CAKI-1 = experiment: NCI-60 screening (SRB); type: cell-based, human; conditions: CAKI-1 (Renal cancer); 1 dose 10 µM
[2] = system: HeLa, MCF-7, HepG2, B16, and A375 cancer cell lines; design: method as in PMID 21496972; conditions: MCF-7, HepG2, B16, A375; cited from earlier work
[3] = system: HT29 colorectal cancer cells; design: method as in doi:10.1007/BF02974180, PMID 15694457; conditions: cited from earlier work
[4] = system: KB oral epidermoid cancer cells; design: method as in doi:10.1007/BF02974180, PMID 15694457; conditions: cited from earlier work
[5] = system: HONE-1 nasopharyngeal cancer cells; design: method as in doi:10.1007/BF02974180, PMID 15694457; conditions: cited from earlier work
[6] = system: A549 non-small lung cancer cells; design: method as in doi:10.1007/BF02974180, PMID 15694457; conditions: cited from earlier work
HCT15 colon cancer cells = system: HCT15 colon cancer cells; design: method as in doi:10.1007/BF02974180, PMID 15694457; conditions: cited from earlier work
[7] = system: NIH3T3 noncancer murine fibroblast cells; design: method as in PMID 26044356; conditions: NIH3T3 noncancer murine fibroblasts; cited from earlier work
HL-60(TB) = experiment: NCI-60 screening (SRB); type: cell-based, human; conditions: HL-60(TB) (Leukemia); 1 dose 10 µM
A498 = experiment: NCI-60 screening (SRB); type: cell-based, human; conditions: A498 renal cancer; 1 dose 10 µM
Leukemia = experiment: NCI-60 screening (SRB), subpanel; type: cell-based; conditions: leukemia cancer cell lines; 1 dose 10 µM
Description: as §1, §2, §3, §4

[8] = system: T-lymphoblastic leukemia, breast adenocarcinoma, and cervical cancer cells; conditions: cited from earlier work
CCRF-CEM cell line = system: CCRF-CEM cell line; design: method as in PMID 27425639; conditions: cited from earlier work

| Compound | Positive Cytostatic Effect (cell lines with percent growth 0 to 50 / total) [1] | Positive Cytotoxic Effect (cell lines with percent growth <0 / total) [1] | antiproliferative effect in one dose primary screening [1] | activity at 10 µM ([1]; read-out: Mean Growth, %) | activity at 10 µM ([1]; read-out: Range of Growth, %) | other results |
| --- | --- | --- | --- | --- | --- | --- |
| CCN1CCN(C(=O)[C@]23CC[C@@H](C)[C@H](C)[C@H]2C2=CC[C@@H]4[C@@]5(C)C/C(=C/c6ccccn6)C(=O)C(C)(C)[C@@H]5CC[C@@]4(C)[C@]2(C)CC3)CC1 [Compound 8] | 0/59 | 0/59 | do not exhibit antiproliferative effects; also recorded: do not induce any significant antiproliferative activity | 92.4% | 74.8 to 108% | Growth % (LOX IMVI): 74.76% |
| CCN1CCN(C(=O)[C@]23CCC(C)(C)C[C@H]2C2=CC[C@@H]4[C@@]5(C)C/C(=C/c6ccccn6)C(=O)C(C)(C)[C@@H]5CC[C@@]4(C)[C@]2(C)CC3)CC1 [Compound 5, N-(2-{2-Pyridinylidene}-3-oxoolean-12-en-28-oyl)-ethylpiperazine] | 0/59 | 0/59 | do not exhibit antiproliferative effects; also recorded: do not induce any significant antiproliferative activity | 86.7% | 49.2 to 115% | Growth % (CAKI-1): 49.25% |
| 3,23-dihydroxy-17-piperazinyl betulinic amide |  |  |  |  |  | IC50 [2]: < 10 µM |
| C[C@H]1[C@H](C)CC[C@]2(C(=O)O)CC[C@]3(C)C(=CC[C@@H]4[C@@]5(C)CCC(=O)C(C)(C)[C@@H]5CC[C@]43C)[C@H]12 [Ursonic acid] |  |  |  |  |  | IC50 [3]: 6.3 µM; IC50 [4]: 4 µM; IC50 [5]: 5.2 µM; IC50 [6]: 7.7 µM; IC50 (HCT15 colon cancer cells): 4.6 µM; IC50 [7]: > 50 µM |
| CCN1CCN(C(=O)[C@]23CCC(C)(C)C[C@H]2C2=CC[C@@H]4[C@@]5(C)CCC(=O)C(C)(C)[C@@H]5CC[C@@]4(C)[C@]2(C)CC3)CC1 [Compound 3, N-(3-oxo-olean-12-en-28-oyl)-ethylpiperazine] | 5/59 | 7/59 | moderate growth inhibition activity | 46% | -35.8 to 80.4% | Growth % (HL-60(TB)): −35.82%; Growth % (A498): −7.95%; growth percentages, range (Leukemia): −35.82 to 37.47% |
| C=C(C)C1CCC2(C(=O)N3CCNCC3)CCC3(C)C(CCC4C5(C)CCC(O)C(C)(C)C5CCC43C)C12 (centres unmarked) [piperazine amide of betulinic acid] |  |  |  |  |  | cytotoxicity [8]: 0.7 to 7.8 µM |
| C=C(C)C1CCC2(C(=O)N3CCNCC3)CCC3(C)C(CCC4C5(C)CCC(O)C(C)(C)C5CCC43C)C12 (centres unmarked) [Betulinic acid piperazinyl amide] |  |  |  |  |  | IC50 (CCRF-CEM cell line): 0.8 µM |
